Test results as given in patent US6368812B1 (priority 1996, dated 2002).
Like-named read-outs stand apart in the source and are kept apart here. No end group written: not given here.

Tests used:
[1] = test system: hGALR3/G protein; experiment: guanine nucleotide and pertussis toxin sensitivity of porcine 125I-galanin binding to hGALR3-LMTK- #228 membranes; parameters: species or system human; details: for reduction of specific porcine 125I-galanin binding: 0.3 nM porcine 125I-galanin, nucleotide concentrations up to 100 μM; for decrease of specific porcine 125I-galanin binding / IC50: 0.3 nM radioligand, control membranes; for IC50: read-out: IC50 for decrease of specific porcine 125I-galanin binding
[2] = target: T1, human GALR3 (Homo sapiens, UniProt O60755); experiment: voltage clamp currents in Xenopus oocytes expressing hGALR3 and GIRK1/GIRK4; assay type: cell-based
T1 construct: The full-length human GALR3 gene contains 1107 bp within its coding region, encoding for a predicted protein of 368 aa; expressed in transfected cells
T1 sequence (O60755 1-368): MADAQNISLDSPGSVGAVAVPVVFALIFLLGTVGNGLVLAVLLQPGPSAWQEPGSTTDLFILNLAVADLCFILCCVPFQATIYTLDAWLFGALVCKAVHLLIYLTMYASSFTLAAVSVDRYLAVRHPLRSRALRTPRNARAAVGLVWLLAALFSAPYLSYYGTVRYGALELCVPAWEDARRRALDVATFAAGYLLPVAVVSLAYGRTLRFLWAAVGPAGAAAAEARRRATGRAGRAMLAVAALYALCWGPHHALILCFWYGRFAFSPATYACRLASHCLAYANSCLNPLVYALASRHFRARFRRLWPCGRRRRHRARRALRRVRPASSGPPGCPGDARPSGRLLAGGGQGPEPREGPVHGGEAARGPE
Procedure: Activation of inwardly rectifying currents that are sensitive to 300 μM Ba^++ signifies GALR3 coupling to a Gαi or Gαo pathway in the oocytes.
Oocytes were isolated as described above, except that 3 mg/mL collagenase was used to defolliculate the oocytes.
Experiments were carried out at room temperature.

[3] = target: T2, Hum GALR2 (Homo sapiens, UniProt O43603); experiment: porcine 125I-galanin binding assay, Hum GALR2 CHO
T2 construct: expressed in transfected cells; host or cells: CHO
T2 sequence (O43603 1-387): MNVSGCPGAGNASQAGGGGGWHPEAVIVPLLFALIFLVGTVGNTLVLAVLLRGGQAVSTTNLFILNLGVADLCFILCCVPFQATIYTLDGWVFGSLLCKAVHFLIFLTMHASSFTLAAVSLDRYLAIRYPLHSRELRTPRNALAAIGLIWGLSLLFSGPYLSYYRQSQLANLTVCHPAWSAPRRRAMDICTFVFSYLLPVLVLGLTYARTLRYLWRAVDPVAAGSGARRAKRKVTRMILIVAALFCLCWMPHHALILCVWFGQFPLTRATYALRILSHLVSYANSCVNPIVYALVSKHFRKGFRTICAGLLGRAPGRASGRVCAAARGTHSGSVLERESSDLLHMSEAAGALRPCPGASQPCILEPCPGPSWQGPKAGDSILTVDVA

[4] = target: T1, human GALR3; experiment: porcine 125I-galanin binding, LM(tk-) cells stably expressing human GALR3 (L-hGalR3-228)
[5] = target: T3, Hum GALR1 (Homo sapiens, UniProt P47211); experiment: porcine 125I-galanin binding assay, Hum GALR1 LM(tk-); details: Table 10
T3 sequence (P47211 1-349): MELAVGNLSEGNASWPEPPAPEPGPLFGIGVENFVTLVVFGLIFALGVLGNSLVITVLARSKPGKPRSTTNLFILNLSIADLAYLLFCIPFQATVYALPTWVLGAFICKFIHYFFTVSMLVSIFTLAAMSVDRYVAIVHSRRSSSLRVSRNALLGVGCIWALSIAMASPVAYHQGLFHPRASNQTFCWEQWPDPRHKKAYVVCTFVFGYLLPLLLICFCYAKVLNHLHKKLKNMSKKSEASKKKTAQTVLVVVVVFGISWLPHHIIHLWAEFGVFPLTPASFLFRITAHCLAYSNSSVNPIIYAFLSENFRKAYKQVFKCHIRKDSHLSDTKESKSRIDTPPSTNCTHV

[6] = Table 10, read-out: Ki (nM) Hum GALR2 CHO
[7] = Table 10, read-out: Ki (nM) Hum GALR3 LMTK− #8
[8] = read-out: Ki (nM) Hum GALR2 CHO, Table 10
[9] = read-out: Ki (nM) Hum GALR3 LMTK− #8, Table 10

Nc1nc2c(ncn2[C@@H]2O[C@H](COP(=O)(O)OP(=O)(O)NP(=O)(O)O)[C@@H](O)[C@H]2O)c(=O)[nH]1 [Gpp(NH)p]
reduction of specific porcine 125I-galanin binding [1]: 40%

CSCC[C@H](NC(=O)[C@H](CC(C)C)NC(=O)CNC(=O)[C@H](Cc1ccccc1)NC(=O)[C@H](Cc1ccccc1)NC(=O)[C@H](CCC(N)=O)NC(=O)[C@H](CCC(N)=O)NC(=O)[C@@H]1CCCN1C(=O)CNC(=O)[C@H](CC(C)C)NC(=O)[C@H](CC(C)C)NC(=O)[C@H](Cc1ccc(O)cc1)NC(=O)CNC(=O)[C@H](C)NC(=O)[C@H](CO)NC(=O)[C@H](CC(N)=O)NC(=O)[C@H](CC(C)C)NC(=O)[C@@H](NC(=O)[C@H](Cc1c[nH]c2ccccc12)NC(=O)CN)[C@@H](C)O)C(N)=O [galantide]
agonist activity at human GALR3 in oocytes [2]: evoked agonist activity | Ki [3]: 1.08 nM | Ki ([4]; Ki (nM) Hum GALR3 LMTK− #8, Table 10): 40.2 nM | Ki ([4]; Ki (nM) Human L-hGalR3-228, Table 5, stable): 40 nM

GWTLNSAGY [Porcine galanin 1-9]
Ki [3, 6]: > 1000 nM | Ki [5]: > 1000 nM | Ki [4, 7]: > 1000 nM

ELEPEDEARPGGFDRLQSEDKAIRTIMEFLAFLHLKEAGAL-NH2 [GMAP 1-41 amide]
Ki [3, 6]: > 1000 nM | Ki [5]: > 1000 nM | Ki [4, 7]: > 1000 nM

CC(C)C[C@H](NC(=O)[C@H](CC(C)C)NC(=O)[C@H](Cc1ccc(O)cc1)NC(=O)CNC(=O)[C@H](C)NC(=O)[C@H](CO)NC(=O)[C@H](CC(N)=O)NC(=O)[C@H](CC(C)C)NC(=O)[C@@H](NC(=O)[C@H](Cc1c[nH]c2ccccc12)NC(=O)CN)[C@@H](C)O)C(=O)NCC(=O)O [Porcine galanin 1-12]
Ki [3, 8]: 5.17 nM | Ki [5]: 61.7 nM | Ki [4, 9]: 307 nM

Nc1nc2c(ncn2[C@@H]2O[C@H](COP(=O)(O)OP(=O)(O)OP(O)(O)=S)[C@@H](O)[C@H]2O)c(=O)[nH]1 [GTPγS]
reduction of specific porcine 125I-galanin binding [1]: 40% | decrease of specific porcine 125I-galanin binding [1]: approximately 53% | IC50 [1]: 4.7 nM

LPGLPSAASSEDAGQS-NH2 [GMAP 44-59 amide]
Ki [3, 6]: > 1000 nM | Ki [5]: > 1000 nM | Ki [4, 7]: > 1000 nM

LQSEDKAIRTIMEFLAFLHLKEAGAL-NH2 [GMAP 16-41 amide]
Ki [3, 6]: > 1000 nM | Ki [5]: > 1000 nM | Ki [4, 7]: > 1000 nM

Nc1nc2c(ncn2[C@@H]2O[C@H](COP(=O)(O)O)[C@@H](O)[C@H]2O)c(=O)[nH]1 [GMP]
decrease of specific porcine 125I-galanin binding [1]: not

TLNSAGYLLGPHAVGNHRSFSDKNGLTS [human galanin 3-30]
Ki [3, 8]: > 1000 nM | Ki [5]: > 1000 nM | Ki [4, 9]: > 1000 nM

Nc1nc2c(ncn2[C@@H]2O[C@H](COP(=O)(O)OP(=O)(O)O)[C@@H](O)[C@H]2O)c(=O)[nH]1 [GDP]
decrease of specific porcine 125I-galanin binding [1]: ~56% | IC50 [1]: 160 nM

CC(C)C[C@H](NC(=O)[C@H](CC(C)C)NC(=O)[C@H](Cc1ccc(O)cc1)NC(=O)CNC(=O)[C@H](C)NC(=O)[C@H](CO)NC(=O)[C@H](CC(N)=O)NC(=O)[C@H](CC(C)C)NC(=O)[C@@H](NC(=O)[C@H](Cc1c[nH]c2ccccc12)NC(=O)CN)[C@@H](C)O)C(=O)NCC(=O)N1CCC[C@H]1C(=O)N[C@@H](Cc1cnc[nH]1)C(=O)N[C@@H](C)C(=O)O [Porcine galanin 1-15]
Ki [4, 9]: 309 nM

porcine galanin
average inward current ([2]; 1 μM, local perfusion): 51.3±9.4 nA | agonist activity at human GALR3 in oocytes ([2]; fixed dose of 1 μM): evoked agonist activity

CC(C)C[C@H](NC(=O)[C@H](CC(C)C)NC(=O)[C@H](Cc1ccc(O)cc1)NC(=O)CNC(=O)[C@H](C)NC(=O)[C@H](CO)NC(=O)[C@H](CC(N)=O)NC(=O)[C@H](CC(C)C)NC(=O)[C@@H](NC(=O)[C@H](Cc1c[nH]c2ccccc12)NC(=O)CN)[C@@H](C)O)C(=O)NCC(=O)N1CCC[C@H]1C(=O)O [porcine galanin 1-13]
Ki [3, 8]: 28.2 nM | Ki [5]: 7.94 nM | Ki [4, 9]: > 1000 nM

TIMEFLAFLHLKEAGAL-NH2 [GMAP 25-41 amide]
Ki [3, 6]: > 1000 nM | Ki [5]: > 1000 nM | Ki [4, 7]: > 1000 nM
